Columns and labels:
[1] = In vivo pharmacokinetics, plasma and brain, 10 mg/kg IP; details: male, CD1, mouse, mice
Protocol: Pharmacokinetic studies in mice were approved by the Animal Care and Use Committee at Johns Hopkins University. Male CD1 mice between 25 and 30 g were obtained from Harlan and maintained on a 12 h light−dark cycle with ad libitum access to food and water. Test compounds were dosed at 10 mg/kg IP at a dosing volume of 10 mL/kg. Blood and brain tissue were collected at 0.25, 0.5, 1, 2, 4 and 6 h post dose (n = 3 per time point). Blood was obtained via cardiac puncture and plasma was harvested from blood by centrifugation at 3000 × g for 15 min and stored at −80 °C. Brain tissues were harvested following blood collection and immediately snap frozen in liquid nitrogen and stored at −80 °C until LC−MS analysis. […] The samples were vortex mixed for 30 secs and centrifuged at 10000 × g for 10 min at 4 °C. Fifty microliter of the supernatant was diluted with 50 µL water and transferred to a 250 µL polypropylene vial sealed with a Teflon cap and analyzed via LC/MS/MS as described above. Plasma concentrations (pmol/mL) as well as tissue concentrations (pmol/g) were determined and plots of mean plasma concentration versus time were constructed for PK analysis. Non-compartmental-analysis modules in Phoenix WinNonlin version 7.0 (Certara USA, Inc., Princeton, NJ) were used to assess pharmacokinetic parameters including maximal concentration (Cmax), time to Cmax (Tmax), and area under the curve extrapolated to infinity (AUC0-∞).

[2] = Metabolic stability in mouse liver microsomes with NADPH; format: in vitro ADME; details: pH 7.4, 1 μM compound, read-out: percent remaining
Protocol: One potential liability when using chemical probes in vivo is lack of metabolic stability which structurally inactivates the compound before it can reach its molecular target. […] Percent of drug remaining over time was determined by liquid chromatography–tandem mass spectrometry analysis (LC/MS/MS).
Metabolic stability assay was conducted in mouse or human liver microsomes as we have described previously with minor modifications. Briefly, the reaction was carried out using potassium phosphate buffer (100 mM, pH 7.4), in the presence of an NADPH regenerating system (compound final concentration was 1 μM; 0.2 mg/mL microsomes). Compound disappearance was monitored over time using a liquid chromatography and tandem mass spectrometry (LC/MS/MS) method. Chromatographic analysis was performed using an Accela ultra high-performance system consisting of an analytical pump and an autosampler coupled with a TSQ Vantage mass spectrometer (Thermo Fisher Scientific Inc., Waltham, MA). […] The mobile phase consisted of 0.1% formic acid in acetonitrile and 0.1% formic acid in water with gradient elution.

[3] = molecular target: alkaline phosphatase; experiment: Counter assay without nSMase2 and SM, phosphorylcholine as substrate (enzyme-coupled detection reactions); format: biochemical; details: no nSMase2, no SM; phosphorylcholine 2 μM as substrate

With COc1cc(-c2nc(-c3cccs3)c(-c3ccccc3)[nH]2)cc(OC)c1O [DPTIP, 2,6-Dimethoxy-4-(5-Phenyl-4-Thiophen-2-yl-1H-Imidazol-2-yl)-Phenol] the Kp ([1]; brain and plasma, read-out: AUCbrain/AUCplasma) was 0.26, the AUC(0-inf) ([1]; brain) was 2.6 ± 0.5 µM·h and the Tmax ([1]; brain) was 30 min. The AUC(0-inf) ([1]; plasma) was 10 ± 1 µM·h, the Tmax ([1]; plasma) was 30 min and the remaining at 1 h, 1 μM [2] was 100%. The IC50 [3] was greater than 100 µM.
